From patent US20120016009A1, “Optimized Methods For Delivery Of DSRNA Targeting The PCSK9 Gene” (priority 2008, published 2012) come the findings set out here.

In the oligonucleotide strings, read from the 5' end, every base follows the letter of its sugar. An asterisk marks phosphorothioate; unmarked linkages are phosphodiester. Other units and linkages are bracketed, terminal groups are in braces. A string of capitals states the bases alone. [Ab] = 3'-terminal abasic nucleotide; e = 2'-O-(2-methoxyethyl) (MOE); d = 2'-deoxy (DNA); m = 2'-O-methyl; r = 2'-OH (RNA); {P} = phosphate; f = 2'-fluoro

This data set concerns PCSK9 mRNA. The data set can be described thus: In vitro screening of modified dsRNAs targeted to PCSK9 (Table 2b; cell type not given). In kind it is cell-based. As to conditions: 30 nM siRNA. The method, then:
For transfection with siRNA, HuH7, HepG2, or HeLa cells were seeded at a density of 2.0×10^4 cells/well in 96-well plates and transfected directly. Transfection of siRNA (30 nM for single dose screen) was carried out with lipofectamine 2000 (Invitrogen GmbH, Karlsruhe, Germany, cat. No. 11668-019) as described by the manufacturer.
24 hours after transfection HuH7 and HepG2 cells were lysed and PCSK9 mRNA levels were quantified with the Quantigene Explore Kit (Genosprectra, Dumbarton Circle Fremont, USA, cat. No. QG-000-02) according to the protocol. PCSK9 mRNA levels were normalized to GAP-DH mRNA. For each siRNA eight individual datapoints were collected. siRNA duplexes unrelated to PCSK9 gene were used as control. The activity of a given PCSK9 specific siRNA duplex was expressed as percent PCSK9 mRNA concentration in treated cells relative to PCSK9 mRNA concentration in cells treated with the control siRNA duplex.
Tables 1b and 2b (and FIG. 6A) summarize the results and provide examples of in vitro screens in different cell lines at different doses. Silencing of PCSK9 transcript was expressed as percentage of remaining transcript at a given dose.
As for “AD-12401: modified dsRNA, SEQ ID NO:1497/1498 (chain 1 rGmCmCmUrGrGrArGmUmUmUrAmUmUmCrGrGrArAdT*dT; chain 2 {P}-fUfUfCfCrGrArAfUrArArAfCfUfCfCrArGrGfC*fC*fU)”, the “Remaining mRNA in % of controls at siRNA conc. of 30 nM” value (“Remaining mRNA in % of controls” below) came to 13%.
The same measure for “AD-12341: modified dsRNA, SEQ ID NO:1381/1382 (chain 1 fGmCfCmUfGmGfAmGfUmUfUmAfUmUfCmGfGmAfAdT*dT; chain 2 {P}-mUfUmCfCmGfAmAfUmAfAmAfCmUfCmCfAmGfGmCdT*dT)”: 12%.
The value for “AD-12351: modified dsRNA, SEQ ID NO:1401/1402 (chain 1 fGmCfCmUfGmGfAmGfUmUfUmAfUmUfCmGfGmAfA; chain 2 {P}-mUfUmCfCmGfAmAfUmAfAmAfCmUfCmCfAmGfGmC*fC*mU)” was 11%; that for “AD-12367: modified dsRNA, SEQ ID NO:1431/1432 (chain 1 GCCUGGAGUUUAUUCGGAATT; chain 2 rUrUrCrCrGmAmArUrAmAmArCrUrCrCrAmGmGmCdT*dT; chain 1: DNA at T, 2'-MOE at CU, RNA at AG, linkages o19 s1 (s phosphorothioate, o phosphodiester), methylation of C and T or U not given here)” was 42%; that for “AD-12043: modified dsRNA, SEQ ID NO:1321/1322 (chain 1 rGrCrCrUrGrGrArGrUrUrUrArUrUrCrGrGrArAdT*dT; chain 2 rUmUrCrCrGrArArUrArArArCrUrCrCrArGrGrCdT*dT)” was 13%.
The value for “AD-12366: modified dsRNA, SEQ ID NO:1429/1430 (chain 1 GCCUGGAGUUUAUUCGGAATT; chain 2 rUrUrCrCrGrArArUrArArArCrUrCrCrArGrGrCdT*dT; chain 1: sugars from the 5' end rerererererererererdd, linkages o19 s1 (s phosphorothioate, o phosphodiester), methylation of C and T or U not given here)” was 23%; that for “AD-12372: modified dsRNA, SEQ ID NO:1441/1442 (chain 1 GCCUGGAGUUUAUUCGGAATT; chain 2 {P}-mUfUmCfCmGfAmAfUmAfAmAfCmUfCmCfAmGfGmC*fC*mU; chain 1: DNA at T, 2'-MOE at CU, RNA at AG, linkages o19 s1 (s phosphorothioate, o phosphodiester), methylation of C and T or U not given here)” was 60%; that for “AD-12065: modified dsRNA, SEQ ID NO:1365/1366 (chain 1 rGmCrCmUrGmGrAmGrUmUrUmArUmUrCmGrGmArAdTdT[Ab]; chain 2 rUrUrCrCrGrArAmUrArArArCrUrCmCrArGrGrCdTdT[Ab])” was 16%.
For the substance “AD-12069: modified dsRNA, SEQ ID NO:1373/1374 (chain 1 rGmCrCmUrGmGrAmGrUmUrUmArUmUrCmGrGmArA; chain 2 rUrUrCrCrGrArArUrArArArCrUrCrCrArGrGrC*mC*mU)”, the “Remaining mRNA in % of controls” value was 13%.
The same measure for “AD-12400: modified dsRNA, SEQ ID NO:1495/1496 (chain 1 rGrCrCrUrGrGrArGrUrUrUrArUrUrCrGrGrArAdT*dT; chain 2 {P}-fUfUfCfCrGrArAfUrArArAfCfUfCfCrArGrGfC*fC*fU)”: 12%; for “AD-12056: modified dsRNA, SEQ ID NO:1347/1348 (chain 1 rGmCrCmUrGmGrAmGrUmUrUmArUmUrCmGrGmArA; chain 2 rUrUrCrCrGrArArUrArArArCrUrCrCrArGrGrCdTdT[Ab])”: 11%; for “AD-12042: modified dsRNA, SEQ ID NO:1319/1320 (chain 1 rGrCrCrUrGrGrArGrUrUrUrArUrUrCrGrGrArAdT*dT; chain 2 mUrUrCrCrGrArArUrArArArCrUrCrCrArGrGrCdT*dT)”: 12%.
With “AD-12345: modified dsRNA, SEQ ID NO:1389/1390 (chain 1 fGmCfCmUfGmGfAmGfUmUfUmAfUmUfCmGfGmAfAdT*dT; chain 2 rUrUrCrCrGrArArUrArArArCrUrCrCrArGrGrC*mC*mU)”, the “Remaining mRNA in % of controls” value stood at 12%.
The value for “AD-12059: modified dsRNA, SEQ ID NO:1353/1354 (chain 1 rGmCrCmUrGmGrAmGrUmUrUmArUmUrCmGrGmArA; chain 2 mUrUmCrCrGrArAmUrArArArCrUmCmCrArGrGrCdT*dT)” was 23%; that for “AD-12377: modified dsRNA, SEQ ID NO:1449/1450 (chain 1 rGfCfCfUrGrGrArGfUfUfUrAfUfUfCrGrGrArAdT*dT; chain 2 mUrUmCrCrGrArAmUrArArArCrUmCmCrArGrGrCdT*dT)” was 88%.
The value for “AD-12066: modified dsRNA, SEQ ID NO:1367/1368 (chain 1 rGmCrCmUrGmGrAmGrUmUrUmArUmUrCmGrGmArA; chain 2 rUrUrCrCrGrArAmUrArArArCrUrCmCrArGrGrC*mC*mU)” was 20%; that for “AD-12382: modified dsRNA, SEQ ID NO:1459/1460 (chain 1 rGfCfCfUrGrGrArGfUfUfUrAfUfUfCrGrGrArAdT*dT; chain 2 {P}-fUfUfCfCrGrArAfUrArArAfCfUfCfCrArGrGfCdT*dT)” was 7%.
The value for “AD-12395: modified dsRNA, SEQ ID NO:1485/1486 (chain 1 GCCUGGAGUUUAUUCGGAATT; chain 2 {P}-fUfUfCfCrGrArAfUrArArAfCfUfCfCrArGrGfC*fC*fU; chain 1: sugars from the 5' end rerererererererererdd, linkages o19 s1 (s phosphorothioate, o phosphodiester), methylation of C not given here)” was 55%; that for “AD-12047: modified dsRNA, SEQ ID NO:1329/1330 (chain 1 rGmCmCmUrGrGrArGmUmUmUrAmUmUmCrGrGrArArA; chain 2 rUrUrUrCrCrGrArArUrArArArCrUrCrCrArGrGrC*mC*mU)” was 17%.
For “AD-12053: modified dsRNA, SEQ ID NO:1341/1342 (chain 1 rGmCmCmUrGrGrArGmUmUmUrAmUmUmCrGrGrArArArArGdTdT[Ab]; chain 2 rCrUrUrUrUrCrCrGrArArUrArArArCrUrCrCrArGrGrCdTdT[Ab])”, the “Remaining mRNA in % of controls” value is reported as 46%.
The value for “AD-12050: modified dsRNA, SEQ ID NO:1335/1336 (chain 1 rGmCmCmUrGrGrArGmUmUmUrAmUmUmCrGrGrArAdTdT[Ab]; chain 2 rUrUrCrCrGrArArUrArArArCrUrCrCrArGrGrCdTdT[Ab])” was 16%; that for “AD-12068: modified dsRNA, SEQ ID NO:1371/1372 (chain 1 rGmCrCmUrGmGrAmGrUmUrUmArUmUrCmGrGmArAdTdT[Ab]; chain 2 rUrUrCrCrGrArArUrArArArCrUrCrCrArGrGrCdTdT[Ab])” was 18%; that for “AD-12362: modified dsRNA, SEQ ID NO:1421/1422 (chain 1 GCCUGGAGUUUAUUCGGAA; chain 2 mUrUmCrCrGrArAmUrArArArCrUmCmCrArGrGrCdT*dT; chain 1: sugars from the 5' end rererererererererer, all phosphodiester, methylation of C and T or U not given here)” was 51%.
The value for “AD-12063: modified dsRNA, SEQ ID NO:1361/1362 (chain 1 rGmCrCmUrGmGrAmGrUmUrUmArUmUrCmGrGmArA; chain 2 rUrUrCrCrGmAmArUrAmAmArCrUrCrCrAmGmGmC*mC*mU)” was 19%; that for “AD-12384: modified dsRNA, SEQ ID NO:1463/1464 (chain 1 rGmCmCmUrGrGrArGmUmUmUrAmUmUmCrGrGrArAdT*dT; chain 2 {P}-fUfUfCfCrGrArAfUrArArAfCfUfCfCrArGrGfCdT*dT)” was 8%; that for “AD-12350: modified dsRNA, SEQ ID NO:1399/1400 (chain 1 fGmCfCmUfGmGfAmGfUmUfUmAfUmUfCmGfGmAfAdTdT[Ab]; chain 2 {P}-mUfUmCfCmGfAmAfUmAfAmAfCmUfCmCfAmGfGmCdTdT[Ab])” was 17%.
The value for “AD-12342: modified dsRNA, SEQ ID NO:1383/1384 (chain 1 fGmCfCmUfGmGfAmGfUmUfUmAfUmUfCmGfGmAfAdT*dT; chain 2 rUrUrCrCrGrArAmUrArArArCrUrCmCrArGrGrCdT*dT)” was 13%.
Regarding “AD-12064: modified dsRNA, SEQ ID NO:1363/1364 (chain 1 GCCUGGNAGUUUAUUCGGAATT; chain 2 rUrUrCrCrGrArAmUrArArArCrUrCmCrArGrGrCdT*dT; chain 1: chemistry not given here; sense strand contains an undefined nucleotide n)”, the “Remaining mRNA in % of controls” value turned out to be 15%.
